Measured values from patent US8728797B2, “Yeast membrane protein expression system and its application in drug screening” (priority 2001, dated 2014).

How the values were obtained:
[1] = system: S. cerevisiae AD1-8u^− (CDR1−); test: Disk drug susceptibility assay, parental strain; type: cell-based; details: at the concentrations used; 30° C., 48 h
Protocol: (§1) S. cerevisiae AD1-8u^− (CDR1−) or AD1002 (CDR1+) cells (5×10^5) seeded in top agar on CSM agar plates (containing uracil for AD1-8u^−) were exposed to drugs or chemicals applied to filter disks and incubated at 30° C. for 48 h. The sensitivity of AD1002 to drugs or chemicals was unaffected by supplementing the medium with uridine (0.02% w/v). Amounts of individual drugs applied to disks are given in the Materials and methods section of Example 2, below.
(§2) Drug susceptibility was measured using disk assays on CSM-URA plates (containing 1.5% w/v agar). Plates were seeded with yeast cells suspended in top agar (5 ml, 10^5 cells/ml). For the uracil-dependent parental strain, agar was supplemented with 0.02% uridine. Five microliters of drug solution or solvent control were spotted onto sterile Whatman paper disks on the top agar. The following amounts (nmoles) of drugs were applied to individual disks: fluconazole, 6.5 (Pfizer Ltd., Sandwich, Kent, United Kingdom); ketoconazole, 0.094 (Janssen Research Foundation, Beerse, Belgium); itraconazole, 0.35 (Janssen); miconazole, 0.084 (Janssen); amphotericin B, 54 (E. R. Squibb & Sons, Princeton, N.J.); rhodamine 6G, 10 (Sigma, Penrose, Auckland, N. Z.); rhodamine 123, 50 (Sigma); trifluoperazine 100 (Sigma); benomyl, 10 (Nippon Roche); cycloheximide, 5 (Sigma); carbonyl cyanide p-chlorophenylhydrazone, 490 (CCCP, Sigma); oligomycin, 10 (Sigma); nigericin, 100 (Sigma); tamoxifen, 25 (Sigma); naftifine, 50 (Novartis); quinidine, 500 (Sigma); valinomycin, 20 (Sigma); verapamil, 1000 (Sigma). Agar plates were incubated at 30° C. for 48 h or until clear growth inhibition zones were visible.

AD-PDR5 (Pdr5p) = test: Disk diffusion assay, AD-PDR5; type: cell-based, S. cerevisiae; details: AD-pABC as negative control, 30° C., 48 h
Protocol: (§3) The cells were spread on CSM-agar plates and exposed to the drugs or chemicals applied to filter disks and incubated at 30° C. for 48 h. The amounts of individual drugs are given in the Materials and Methods section of Example 3. Rhodamine 6G and rhodamine 123 were dissolved in ethanol and the other antifungals were dissolved in DMSO.
(§4) Drug susceptibility was measured using disk assays on CSM-URA plates (containing 1.5% w/v agar). Yeast cells (200 μl ml of 5×10^6 cells/ml) were spread on the plates. 10 μl of drug solution or solvent control were spotted onto sterile Whatman paper disks on the pre-spread plates. The following amounts (nmoles) of drugs were applied to individual disks: fluconazole, 633 (Pfizer Ltd., Sandwich, Kent, United Kingdom); itraconazole, 0.23 (Janssen); miconazole, 0.42 (Janssen); cycloheximide, 0.71 (Sigma); rhodamine 6G, 100 (Sigma, Penrose, Auckland, N. Z.); rhodamine 123, 125 (Sigma); cerulenin 4.5 (Sigma); 5-flucytosine 100 (Sigma); amphotericin B, 97 (E. R. Squibb & Sons, Princeton, N.J.); nystatin 65 (Sigma). Agar plates were incubated at 30° C. for 48 h or until clear growth inhibition zones were visible.

AD-CDR1 (Cdr1p) = test: Disk diffusion assay, AD-CDR1; type: cell-based, S. cerevisiae; details: AD-pABC as negative control, 30° C., 48 h
Protocol: as §3, §4

AD-BEN^R (Ben^Rp) = test: Disk diffusion assay, AD-BEN^R; type: cell-based, S. cerevisiae; details: AD-pABC as negative control, 30° C., 48 h
Protocol: as §3, §4

AD-ERG11 (Erg11p) = test: Disk diffusion assay, AD-ERG11; type: cell-based, S. cerevisiae; details: AD-pABC as negative control, 30° C., 48 h
Protocol: as §3, §4

[2] = system: S. cerevisiae AD1002 (CDR1+); test: Disk drug susceptibility assay, AD1002 compared with parental strain; type: cell-based; details: drug on filter disks, 30° C., 48 h
Protocol: as §1, §2

Cdr1p ATPase = target: T1, Cdr1p ATPase (Candida albicans, UniProt P43071, E1416A/I916V/K1177E/L1021S/Q214E/T842S/Y427F); test: Oligomycin sensitive ATPase/NTPase activity of AD1002 plasma membranes; type: biochemical, C. albicans
T1 construct: expressed in transfected cells; host or cells: S. cerevisiae AD1-8u- with pKEN1002 integrated at the PDR5 locus (strain AD1002), plasma membrane fraction
Protocol: Membrane fractions were isolated from S. cerevisiae AD1002 (▪) or parental AD1-8u^− cells (●). ATPase assays were carried out at 30° C. for 30 min, as described in Materials and methods for Example 2. The oligomycin-sensitive activity was determined as the difference in ATPase activity in the presence and absence of 20 μM oligomycin. […] The results are the means (+/−SD) of four determinations carried out on two membrane preparations.
(B) Inhibition profile with KN20 on the oligomycin-sensitive Cdr1p ATPase activity of plasma membranes from AD1002 minus the oligomycin-sensitive ATPase activity of plasma membranes from the isogenic AD1-8u^− strain.
Yeast were grown in YEPD, pH 5.5 at 30° C. until they reached late-exponential phase of growth (OD600 nm=7), washed twice in ice-cold distilled water, and incubated on ice for 30 min to minimize glucose-stimulated Pma1p activity. Cells were resuspended in homogenising medium (50 mM Tris pH 7.5, 2 mM EDTA and 1 mM phenylmethylsulfonyl fluoride) and disrupted using a Braun Homogeniser. Cell debris and unbroken cells were removed by centrifuging at 2,000×g at 4° C. for 10 min. A crude membrane fraction was isolated from the cell-free supernatant by centrifuging at 30,000×g at 4° C. for 45 min. Plasma membranes were prepared by centrifugation of the supernatant obtained after selective precipitation of mitochondria at pH 5.2 as described previously (Goffeau, A. and Dufour, J. P., 1988). The plasma membranes were resuspended in 10 mM Tris pH 7.0, 0.5 mM EDTA and 20% [v/v] glycerol and stored at −80° C. Protein was determined using a micro-Bradford (Bio-Rad Laboratories, Hercules, Calif. [Bradford, M. M., 1976]) assay with gamma-globulin as standard. Nucleotide triphosphatase activity was measured by incubating the plasma membrane fractions (10 μg) at 30° C. in a final volume of 120 μl containing 6 mM NTP, 7 mM MgSO4 in 59 mM MES-Tris buffer pH 6.0-8.0. To eliminate possible contributions from nonspecific phosphatases, vacuolar, or mitochondrial ATPases, 0.2 mM ammonium molybdate, 50 mM KNO3 and 10 mM NaN3, respectively, were included in assays (Monk B C, et al, 1991). Other ATPase inhibitors (20 μM oligomycin, 20 μM aurovertin B or 100 μM vanadate were added to the reaction where indicated. After 30 min the reaction was stopped by adding 130 μl of a solution containing 1% (w/v) SDS, 0.6 M H2SO4, 1.2% (w/v) ammonium molybdate and 1.6% (w/v) ascorbic acid. Inorganic phosphate released from NTPs was measured at 750 nm after 10 min incubation at room temperature.

T1 sequence (P43071 whole entry Q214E/Y427F/T842S/I916V/L1021S/K1177E/E1416A): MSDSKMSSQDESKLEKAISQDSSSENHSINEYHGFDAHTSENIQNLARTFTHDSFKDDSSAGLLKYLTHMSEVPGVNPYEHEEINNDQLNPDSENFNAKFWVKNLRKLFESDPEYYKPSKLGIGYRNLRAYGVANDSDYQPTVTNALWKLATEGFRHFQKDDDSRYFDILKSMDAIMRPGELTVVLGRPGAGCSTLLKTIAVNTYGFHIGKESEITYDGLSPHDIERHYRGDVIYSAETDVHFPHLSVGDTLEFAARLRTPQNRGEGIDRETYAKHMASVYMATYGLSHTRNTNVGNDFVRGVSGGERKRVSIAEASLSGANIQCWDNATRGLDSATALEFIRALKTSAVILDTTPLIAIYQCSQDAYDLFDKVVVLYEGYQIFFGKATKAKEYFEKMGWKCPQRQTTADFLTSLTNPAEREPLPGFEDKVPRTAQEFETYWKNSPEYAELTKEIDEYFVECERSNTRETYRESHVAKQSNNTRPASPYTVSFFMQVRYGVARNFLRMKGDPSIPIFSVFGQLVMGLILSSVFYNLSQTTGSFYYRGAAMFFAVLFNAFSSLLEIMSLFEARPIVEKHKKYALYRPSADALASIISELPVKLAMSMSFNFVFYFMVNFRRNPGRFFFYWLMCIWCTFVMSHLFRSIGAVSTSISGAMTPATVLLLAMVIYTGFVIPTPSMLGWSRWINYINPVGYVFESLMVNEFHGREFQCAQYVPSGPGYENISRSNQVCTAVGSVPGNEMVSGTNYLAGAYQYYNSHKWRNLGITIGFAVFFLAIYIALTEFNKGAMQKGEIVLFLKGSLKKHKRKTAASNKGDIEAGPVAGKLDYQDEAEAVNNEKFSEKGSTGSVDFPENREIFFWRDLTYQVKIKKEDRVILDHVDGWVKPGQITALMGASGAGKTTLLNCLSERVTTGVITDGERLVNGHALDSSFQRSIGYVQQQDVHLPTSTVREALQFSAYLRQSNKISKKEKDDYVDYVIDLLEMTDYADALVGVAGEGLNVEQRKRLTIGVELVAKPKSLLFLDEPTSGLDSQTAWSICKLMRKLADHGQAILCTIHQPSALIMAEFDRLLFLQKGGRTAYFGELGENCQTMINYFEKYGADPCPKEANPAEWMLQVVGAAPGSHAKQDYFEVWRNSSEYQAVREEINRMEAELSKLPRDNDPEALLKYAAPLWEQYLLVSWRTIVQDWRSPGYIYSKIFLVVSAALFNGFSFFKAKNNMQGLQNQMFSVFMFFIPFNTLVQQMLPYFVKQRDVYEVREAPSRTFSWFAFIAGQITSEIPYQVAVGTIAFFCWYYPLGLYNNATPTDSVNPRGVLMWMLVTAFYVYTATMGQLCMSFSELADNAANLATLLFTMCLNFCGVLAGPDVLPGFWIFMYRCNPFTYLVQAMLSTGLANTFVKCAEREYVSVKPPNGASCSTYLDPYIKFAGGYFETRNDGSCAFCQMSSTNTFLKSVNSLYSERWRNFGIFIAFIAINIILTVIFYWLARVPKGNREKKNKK

Molecule | resistance/sensitivity in disk diffusion assay (AD-PDR5 (Pdr5p)) | resistance/sensitivity in disk diffusion assay (AD-CDR1 (Cdr1p)) | resistance/sensitivity in disk diffusion assay (AD-BEN^R (Ben^Rp)) | resistance/sensitivity in disk diffusion assay (AD-ERG11 (Erg11p)) | resistance of AD1002 relative to parental strain in disk assay [2] | other results
C=C[C@H]1C[N@@]2CC[C@H]1C[C@@H]2[C@@H](O)c1ccnc2ccc(OC)cc12 [quinidine] |  |  |  |  |  | sensitivity of parental strain AD1-8u^− in disk assay [1]: resistant
CC(C)[C@@H]1NC(=O)[C@H](C)OC(=O)[C@@H](C(C)C)NC(=O)[C@@H](C(C)C)OC(=O)[C@H](C(C)C)NC(=O)[C@H](C)OC(=O)[C@@H](C(C)C)NC(=O)[C@@H](C(C)C)OC(=O)[C@H](C(C)C)NC(=O)[C@H](C)OC(=O)[C@@H](C(C)C)NC(=O)[C@@H](C(C)C)OC1=O [valinomycin] |  |  |  |  |  | sensitivity of parental strain AD1-8u^− in disk assay [1]: resistant
Nc1[nH]c(=O)ncc1F [flucytosine] | sensitivities | sensitivities | sensitive | susceptible |  | 
C[C@@H]1C[C@@H]([C@H](O)CC2CC(=O)NC(=O)C2)C(=O)[C@@H](C)C1 [cycloheximide] | resistances | resistances | resistant | susceptible | confers resistance to growth inhibition | 
C[C@@H]1[C@H](O)[C@@H](C)/C=C/C=C/C=C/C=C/C=C/C=C/C=C/[C@H](O[C@@H]2O[C@H](C)[C@@H](O)[C@H](N)[C@@H]2O)C[C@@H]2O[C@](O)(C[C@@H](O)C[C@@H](O)[C@H](O)CC[C@@H](O)C[C@@H](O)CC(=O)O[C@H]1C)C[C@H](O)[C@H]2C(=O)O [amphotericin B] | sensitivities | sensitivities |  |  |  | resistance of AD1002 relative to parental strain in disk assay ([2]; listed as Amphotericin B): toxicity in yeast was not modified
rhodamine 123 | resistances | resistances | fully sensitive | susceptible | clear resistance | 
CC[C@H]1/C=C/C=C/C[C@@H](C)[C@H](O)[C@@](C)(O)C(=O)[C@@H](C)[C@H](O)[C@@H](C)C(=O)[C@@H](C)[C@H](O)[C@@H](C)/C=C/C(=O)O[C@@H]2[C@H](C)[C@H](CC1)O[C@]1(CC[C@H](C)[C@H](C[C@@H](C)O)O1)[C@H]2C [oligomycin] |  |  |  |  |  | sensitivity of parental strain AD1-8u^− in disk assay [1]: resistant
CC[C@H]1O[C@]2(C)[C@H](OC(C)=O)[C@@]1(C)O[C@@H](/C=C/C=C/C=C/c1oc(=O)cc(OC)c1C)[C@@H]2O [aurovertin B] |  |  |  |  |  | sensitivity of AD1002 ATPase/NTPase activity to inhibitor (Cdr1p ATPase; aurovertin B 20 μM): insensitive
C/C=C/C/C=C/CCC(=O)[C@H]1O[C@H]1C(N)=O [cerulenin] |  |  | resistant | susceptible |  | 
Clc1ccc(COC(Cn2ccnc2)c2ccc(Cl)cc2Cl)c(Cl)c1 (centres unmarked) [miconazole] | resistances | resistances | detectable resistance | some resistance |  | 
rhodamine 6G | resistances | resistances | fully sensitive | susceptible | clear resistance | 
CN(C/C=C/c1ccccc1)Cc1cccc2ccccc12 [naftifine] |  |  |  |  | cross-resistance | 
CCCCNC(=O)n1c(NC(=O)OC)nc2ccccc21 [benomyl] |  |  |  |  |  | sensitivity of parental strain AD1-8u^− in disk assay [1]: resistant
CO[C@@H]1C[C@@H](C[C@H]2CC[C@H](C)[C@H]([C@@H](C)C(=O)O)O2)O[C@]2(O[C@](C)([C@H]3CC[C@@](C)([C@@H]4O[C@@H]([C@H]5O[C@@](O)(CO)[C@H](C)C[C@@H]5C)C[C@@H]4C)O3)C[C@H]2C)[C@@H]1C [nigericin] |  |  |  |  | confers resistance to growth inhibition | 
[O]=[V]([O-])([O-])[O-] [vanadate] |  |  |  |  |  | sensitivity of AD1002 ATPase/NTPase activity to inhibitor (Cdr1p ATPase; vanadate 100 μM): completely sensitive
C[C@@H]1[C@H](O)[C@@H](C)/C=C/C=C/CC/C=C/C=C/C=C/C=C/C(O[C@H]2O[C@H](C)[C@@H](O)[C@H](N)[C@@H]2O)CC2O[C@](O)(CC(O)C(O)CCC(O)CC(O)CC(O)CC(=O)O[C@H]1C)CC(O)C2C(=O)O (some centres unmarked) [nystatin] | sensitivities | sensitivities |  |  |  | 
CC/C(=C(\c1ccccc1)c1ccc(OCCN(C)C)cc1)c1ccccc1 [tamoxifen] |  |  |  |  | confers resistance to growth inhibition | 
CN1CCN(CCCN2c3ccccc3Sc3ccc(C(F)(F)F)cc32)CC1 [trifluoperazine] |  |  |  |  | confers resistance to growth inhibition | 
COc1ccc(CCN(C)CCCC(C#N)(c2ccc(OC)c(OC)c2)C(C)C)cc1OC (centres unmarked) [verapamil] |  |  |  |  | confers resistance to growth inhibition | 
